We go through one compound from paper PMC6369734, “Spy vs. spy: selecting the best reporter for ^19F NMR competition experiments” (Chemical Communications (Cambridge, England), 2019).

Like-named read-outs stand apart in the source and are kept apart here.

In experiment [1] the target is T1, VHL (VBC complex: pVHL54-213, eloB1-104, eloC17-112) (Homo sapiens, UniProt P40337).
T1 construct: equimolar complex of pVHL54-213, eloB1-104 and; made in house; host or cells: E. coli
In words: Surface plasmon resonance (SPR) steady-state binding to immobilised biotinylated AviVBC. As for the experimental part: The KD of each compound to VHL was determined by surface plasmon resonance (SPR) experiments.
3. Protein expression, purification and biotinylation
The VHL E3 ligase is a multi-protein complex composed of five proteins: VHL protein (pVHL), elongin B (eloB), elongin C (eloC), Cullin-2 (Cul2) and Ring-box protein 1 (Rbx1).[3] Since the compounds developed in this work bind solely to the VHL protein, the VBC complex (equimolar complex of pVHL54-213, eloB1-104 and eloC17-112) was used in all experiments, as it can be readily expressed in E. coli with high yields,[4] while the full E3 ligase would require baculovirus-insect cells expression system.[5] The expression and purification of VBC was performed as described previously by our group[2] and employed directly in all NMR experiments.
For the surface plasmon resonance (SPR) experiments, a VBC complex containing an AviTagTM in the N-terminus of eloB (AviVBC) was purified using the same procedure described for VBC. The modified eloB/eloC expression plasmid was previously developed in-house by Dr. Michael Roy and kindly shared. The AviVBC complex was site-specifically biotinylated in the AviTag using the GST-BirA method previously described by […]
4. Surface plasmon resonance experiments
The SPR experiments were performed with a Biacore T200 instrument (GE Healthcare). All measurements were performed at 20 °C with buffer containing 10 mM HEPES, pH 7.5, 150 mM NaCl, 1 mM TCEP, 0.005% (v/v) Tween® 20 and 2% (v/v) dimethyl sulfoxide (DMSO). Biotinylated AviVBC (~0.5 μM) was immobilised at 22 °C onto a Series S sensor chip SA (GE Heathcare) to levels of approximately 3500-4000 response units […]
Solutions of each spy molecule were prepared in buffer at concentrations based on previous structure-activity relationship studies of VHL ligands (K D expected in the nanomolar range for structures like spy molecules 16 and 22, or in the milimolar range for spy molecules similar to 1 and 9). From this first screen, the binding affinities were roughly estimated using the Biacore T200 evaluation software (GE Healthcare), then measurements were repeated using concentrations above and below the KD obtained in the first round to generate better curves for fitting the data accurately. Contact and dissociation times varied across the different compounds tested, but in […]
dissociated from the surface in less than sixty seconds.
Data analysis was performed using the steady state responses of the double-referenced sensorgrams (raw data subtracted from blank and reference surface injections) obtained for each concentration tested. These responses were plotted against the respective concentrations and the data fitted to a 1: 1 binding model u sing the Biacore T200 evaluation software and the following equation: […]
Where Req is the steady-state response at a given concentration C. Deviations in Req were corrected by adding an ‘offset’ term to the equation. KD is the dissociation constant to be determined and RMAX is the maximum response expected for a given compound according to the equation below:
Where n is the stoichiometry of the interaction ( in this case, n = 1) and RProtein is the immobilization level of protein. MWCompound and MWProtein are the molecular weights of compound and protein, respectively. Sensorgrams and fitting parameters for all spy molecules can be found in section 7.

Experiment [2] has as its target T2, VHL (VBC complex) (Homo sapiens, UniProt P40337).
T2 construct: equimolar complex of pVHL54-213, eloB1-104 and; made in house; host or cells: E. coli
Briefly: 19F CPMG NMR transverse relaxation rate (R2) and R2 contrast (C2) of spy molecule with and without protein. The class given is binding. From the text: Due to the large CSA of fluorine and the significant differences in the fluorine isotropic chemical shift (δF) between the free and bound states, the transverse relaxation rate (R2) is a well-established sensitive parameter to detect ligand binding.[4] Therefore, fluorine NMR experiments including a Carr–Purcell–Meiboom–Gill (CPMG) spin-echo filter[10] before acquisition were employed to monitor ligand binding to VHL by measuring peak intensity, as changes in other NMR parameters, such as chemical shift and peak width, were not as significant. The R2 values of the CF3 peak of each compound in the absence and in the presence of protein were determined by performing multiple ^19F CPMG experiments varying the CPMG filter (Fig. 2a). To quantify the shift in R2 upon binding, the R2 contrast (C2)[11] was determined. Ideally, a good spy molecule should have a large increase in R2 (fast relaxation) when protein is present, resulting in a large assay window for the competition experiments (Fig. 2b).
5. Measurement of the transverse relaxation rates by 19F CPMG NMR
All the NMR experiments were performed in a 500 MHz Bruker AVANCE N MR spectrometer equipped with a CPQCI -F cryoprobe. To measure the transverse relaxation rates (R 2), a solution of each spy molecule at 100 μM was prepared in 50 mM potassium phosphate monobasic (KH2PO4), pH 7.5, 100 mM NaCl, 1 mM TCEP, 2% (v/v) DMSO, 20% D2O and 10 µM trifluoroacetic acid (TFA). For each solution, 19F CPMG experiments […]
Due to the fast relaxation of molecules 21 and 22, these experiments were repeated with shorter CPMG filters (50, 100, 150, 200, 300, 400, 700 and 1000 ms). The fluorine peaks were integrated and plotted against the resp ective CPMG filters. The R 2 relaxation rates were obtained from fitting the data as a n exponential decay (GraphPad Prism 6) according to the equation below: [7]
Where I(t) is the 19F signal intensity or integral, t is the total CPMG filter in seconds, I(0) is the signal intensity when t = 0. To obtain the R2 upon addition of prot ein, all the experiments above were repeated in presence of VBC at 1 µM. Experiments were performed as triplicates and the R 2 contrasts (C2) were obtained according to the equation below: [8]
Where R2Free is the R2 obtained for the spy molecule free in solution and R2Observed is the R2 obtained with the spy molecule in presence of VBC. The raw data, fitting, R2 and C2 values for each spy molecule can be found in section 8.1. For the R2 measurements using molecule 19 at varied concentrations of spy molecule and protein, see section 8.2 . For the R2 measurements using spy molecules 6 and 11 (used to generate figures S 2, S3 and S4) see

For experiment [3], the target named is T2, VHL (VBC complex). Described as above. Type of experiment: binding. The source holds these as a separate data set.

T2 sequence (P40337 54-213): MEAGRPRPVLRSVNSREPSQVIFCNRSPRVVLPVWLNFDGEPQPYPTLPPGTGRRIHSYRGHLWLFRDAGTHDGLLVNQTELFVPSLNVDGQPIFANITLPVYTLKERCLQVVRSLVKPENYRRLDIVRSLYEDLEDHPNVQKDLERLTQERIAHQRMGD
T2 sequence (Q15370 1-104 partner limits assumed): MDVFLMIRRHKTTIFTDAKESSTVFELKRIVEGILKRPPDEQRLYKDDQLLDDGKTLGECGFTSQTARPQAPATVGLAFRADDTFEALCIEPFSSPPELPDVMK
T2 sequence (Q15369 17-112 partner limits assumed): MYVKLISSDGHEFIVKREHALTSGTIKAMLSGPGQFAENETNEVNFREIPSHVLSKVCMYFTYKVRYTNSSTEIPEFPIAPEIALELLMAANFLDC
T1 sequence (P40337 54-213): as the sequence (P40337 54-213) above
T1 sequence (Q15370 1-104 partner limits assumed): as the sequence (Q15370 1-104 partner limits assumed) above
T1 sequence (Q15369 17-112 partner limits assumed): as the sequence (Q15369 17-112 partner limits assumed) above

On to `CC(C)(C)CC(=O)N1C[C@H](O)C[C@H]1C(=O)NCc1ccc(Br)cc1C(F)(F)F` [Compound 11], for which the Kd amounted to 110 µM in experiment [1] (SPR steady-state fit, supplement section 7, read-out: KD (Biacore T200 fit)) and 110 ± 9 µM in experiment [1] (SPR, 20 °C, steady-state 1:1 fit, footnote b values fitted because RMAX was not reached experimentally, read-out: K D, SPR). Besides, the R2 in experiment [2] (Spy molecule 100 μM + VBC 1 μM) is 2.740 ± 0.096 s⁻¹; in experiment [2] (Spy molecule 100 μM, no protein) it was 1.427 ± 0.033 s⁻¹; in experiment [3] (section 8.3: spy molecules at 50 μM in absence of VBC (sub-head prints Spy molecule 100 μM)), 1.534 ± 0.071 s⁻¹; in experiment [3] (section 8.3: spy molecules at 50 μM in presence of VBC 1 μM (sub-head prints 100 μM)), 3.122 ± 0.145 s⁻¹. Further, the “R2 contrast – C2” value in experiment [2] (Spy molecule 100 μM + VBC 1 μM, supplement 8.1) turned out to be 47.9 ± 4.1%; in experiment [3] (section 8.3: spy molecules at 50 μM, VBC 1 μM) it was 50.9 ± 5.7%.
